# Measurements published in patent US10472418B2, “Composition for preventing or treating lung cancer comprising antibody against CD66C and chemotherapeutic agent” (DINONA, priority 2016, dated 2019).
# Tested on: anti-CD66c antibody, AP11
# Assay: Inhibition of AP11 binding on A549 cells by recombinant antigen, flow cytometry
# Settings: 10, 50 and 100 μg recombinant antigen conjugated with AP11 before A549 cells
# Procedure: In order to confirm whether the purified recombinant antigen (CD66c-HuIgFc) in the above Example 1-3 acts as CD66c antigen, inhibition of conjugation of anti-CD66c antibody, AP11, on the surface of A549 cells by the above recombinant antigen was confirmed by flow cytometry, and the result is shown in FIG. 6.
# Specifically, after conjugating 0, 10, 50 and 100 μg of the above recombinant antigen with AP11 antibody for 30 min at 4° C., it was added to A549 cells and reacted for 30 min at 4° C., added with 3 ml of PBS, centrifuged for 3 min at 1500 rpm and washed. To confirm the conjugated antibody, secondary antibody, goat anti-Mouse IgM FITC (DiNonA) was diluted 200 times, added, reacted for 15 min at 4° C., washed as above with 3 ml of PBS and measured by flow cytometry.
substance,measurement,value
CD66c-HuIgFc: recombinant antigen linking CD66c 34~340 aa region and human immunoglobulin Fc region CH2-CH3,blocking of anti-CD66c mAb (AP11) binding to A549 cells,blocking was observed proportional to the treated amount
